Melting point data for 20 compounds are collected here from patent publication US20020035111A1, “Method of inhibiting neoplastic cells with tetracyclic pyrido[3,4-B] indole derivatives” (priority 1998, published 2002).

The structures appear in SMILES notation.

Consider `COc1ccc([C@H]2c3[nH]c4ccc(F)cc4c3C[C@@H]3C(=O)N(CC(F)(F)F)CC(=O)N23)cc1` (relative stereo) [Example 5, Cis-2,3,6,7,12,12a-Hexahydro-10-Fluoro-6-(4-Methoxyphenyl)-2-(2,2,2-Trifluoroethyl)-Pyrazino(2′,1′:6,1)Pyrido(3,4-b)Indole-1,4-Dione], for which the melting point turned out to be 190 °C.

Consider `C[C@@H]1NC(=O)[C@H]2Cc3c([nH]c4ccccc34)[C@@H](c3ccc4occc4c3)N2C1=O` [Example 123, (3S, 6R, 12aR)-2,3,6,7, 12, 12a-Hexahydro-6-(5-Benzofuranyl)-3-Methyl-Pyrazino[2′,1′:6,1]Pyrido [3,4-b]Indole-1,4-Dione], for which the melting point lay in the range of 150 to 151 °C.

On to `CN1CC(=O)N2[C@@H](c3ccc(Br)s3)c3[nH]c4ccccc4c3C[C@@H]2C1=O` (relative stereo) [Example 52, Cis-2,3,6,7,12,12a-Hexahydro-6-(5-Bromo-2-Thienyl)-2-Methylpyrazino(2′,1′:6,1)Pyrido(3,4-b)Indole-1,4-Dione], for which the melting point amounted to 258 °C.

Turning to `CC(C)N1CC(=O)N2[C@@H](c3ccc4c(c3)OCO4)c3[nH]c4ccccc4c3C[C@@H]2C1=O` (relative stereo) [Example 16, Cis-2,3,6,7,12,12a-Hexahydro-2-Isopropyl-6-(3,4-Methylenedioxyphenyl) Pyrazino(2′,1′:6,1)Pyrido(3,4-b)Indole-1,4-Dione], the melting point is 248 to 250 °C.

The compound `O=C1[C@H]2Cc3c([nH]c4ccccc34)[C@H](c3ccc4c(c3)OCO4)N2C(=O)CN1Cc1cccnc1` (relative stereo) [Example 11, Cis-2,3,6,7,12,12a-Hexahydro-2-(3-Pyridylmethyl)-6-(3,4-Methylenedioxyphenyl)-Pyrazino(2′,1′:6,1)Pyrido(3,4-b)Indole-1,4-Dione] displayed a melting point of 292 to 293 °C.

On to `CN1CC(=O)N2[C@@H](c3cc(Br)cs3)c3[nH]c4ccccc4c3C[C@@H]2C1=O` (relative stereo) [Example 53, Cis-2,3,6,7,12,12a-Hexahydro-6-(4-Bromo-2-Thienyl)-2-Methylpyrazino(2′,1′:6,1)Pyrido(3,4-b)Indole-1,4-Dione], for which the melting point was 292 °C.

As to `CN1CC(=O)N2[C@@H](c3ccc4c(c3)CCCC4)c3[nH]c4ccccc4c3C[C@@H]2C1=O` (relative stereo) [Example 47, Cis-2,3,6,7,12,12a-Hexahydro-2-Methyl-6-(1,2,3,4-Tetrahydro-6-Naphthyl)Pyrazino(2′,1′:6,1)Pyrido(3,4-b)Indole-1,4-Dione], the melting point worked out at 260 °C.

Compound `O=C1[C@H]2Cc3c([nH]c4ccccc34)[C@@H](c3ccc4c(c3)OCO4)N2C(=O)CN1Cc1ccco1` [Example 105, (6R,12aR)-2,3,6,7,12,12a-Hexahydro-2-Furfuryl-6-(3,4-Methylenedioxyphenyl)-Pyrazino(2′,1′:6,1)Pyrido(3,4-b)Indole-1,4-Dione] came in with a melting point of 219 °C.

For `CCCCN1CC(=O)N2[C@@H](c3ccsc3)c3[nH]c4ccccc4c3C[C@@H]2C1=O` (relative stereo) [Example 58, Cis-2,3,6,7,12,12a-Hexahydro-2-Butyl-6-(3-Thienyl)-Pyrazino(2′,1′:6,1)Pyrido(3,4-b)Indole-1,4-Dione], the melting point was in the range of 236 to 239 °C.

Consider `CN1CC(=O)N2[C@H](c3ccc(O)c(O)c3)c3[nH]c4ccccc4c3C[C@@H]2C1=O` [Example 118, (6R, 12aR)-2,3,6,7,12,12a-Hexahydro-6-(3,4-Dihydroxyphenyl)-2-Methylpyrazino(2′,1′:6,1)Pyrido(3,4-b)Indole-1,4-Dione], for which the melting point is 224 to 226 °C.

For the compound `CCCCN1CC(=O)N2[C@@H](c3ccc(NS(C)(=O)=O)cc3)c3[nH]c4ccccc4c3C[C@@H]2C1=O` (relative stereo) [Example 100, Cis-2,3,6,7,12,12a-Hexahydro-2-Butyl-6-(4-Methylsulfonamidophenyl)-Pyrazino(2′,1′:6,1)Pyrido(3,4-b)Indole-1,4-Dione], the melting point amounted to 188 °C.

In the case of `CCCCN1CC(=O)N2[C@H](c3ccc(OC)cc3)c3[nH]c4ccccc4c3C[C@@H]2C1=O` [Example 85, (6R,12aR)-2,3,6,7,12,12a-Hexahydro-2-Butyl-6-(4-Methoxyphenyl)-Pyrazino(2′,1′:6,1)Pyrido(3,4-b)Indole-1,4-Dione], the melting point was in the range of 183 to 184 °C.

In turn, `Cc1ccc([C@H]2c3[nH]c4ccccc4c3C[C@@H]3C(=O)N(C)CC(=O)N23)s1` (relative stereo) [Example 56, Cis-2,3,6,7,12,12a-Hexahydro-2-Methyl-6-(5-Methyl-2-Thienyl)Pyrazino(2′,1′:6,1)Pyrido(3,4-b)Indole-1,4-Dione] showed a melting point of 282 °C.

Turning to `COc1ccc([C@@H]2c3[nH]c4ccccc4c3C[C@@H]3C(=O)N(C4CCCC4)CC(=O)N23)cc1` [Example 86, (6R,12aR)-2,3,6,7,12,12a-Hexahydro-2-Cyclopentyl-6-(4-Methoxyphenyl)-Pyrazino(2′,1′:6,1)Pyrido(3,4-b)Indole-1,4-Dione], the melting point lay in the range of 210 to 211 °C.

Turning to `CN1CC(=O)N2[C@H](c3ccc4c(c3)CCN4)c3[nH]c4ccccc4c3C[C@@H]2C1=O` [Example 111, (6R,12aR)-2,3,6,7,12,12a-Hexahydro-6-(5-Indolinyl)-2-Methyl-Pyrazino(2′,1′:6,1)Pyrido(3,4-b)Indole-1,4-Dione], the melting point was found to be 240 °C.

`CC(C)N1CC(=O)N2[C@H](c3ccc4occc4c3)c3[nH]c4ccccc4c3C[C@@H]2C1=O` [Example 122, (6R, 12aR)-2,3,6,7, 12, 12a-Hexahydro-6-(5-Benzofuranyl)-2-Isopropyl-Pyrazino [2′,1′:6,1]Pyrido [3,4-B]Indole-1,4-Dione]: the melting point lay within 291 to 292 °C.

In turn, `COc1ccc([C@H]2c3[nH]c4ccccc4c3C[C@@H]3C(=O)N(Cc4ccccc4)CC(=O)N23)cc1` (relative stereo) [Example 32, Cis-2,3,6,7,12,12a-Hexahydro-2-Benzyl-6-(4-Methoxyphenyl)Pyrazino(2′,1′:6,1)Pyrido(3,4-b)Indole-1,4-Dione] showed a melting point of 275 to 279 °C.

For `CC(C)N1CC(=O)N2[C@@H](c3ccc4c(c3)CCCC4)c3[nH]c4ccccc4c3C[C@@H]2C1=O` (relative stereo) [Example 48, Cis-2,3,6,7,12,12a-Hexahydro-2-Isopropyl-6-(1,2,3,4-Tetrahydro-6-Naphthyl)Pyrazino(2′,1′:6,1)Pyrido(3,4-b)Indole-1,4-Dione], the melting point lay within 244 to 246 °C.

In turn, `COc1ccc(CCN2CC(=O)N3[C@H](c4ccc5c(c4)OCO5)c4[nH]c5ccccc5c4C[C@@H]3C2=O)cc1OC` [Example 104, (6R,12aR)-2,3,6,7,12,12a-Hexahydro-2-(3,4-Dimethoxyphenethyl)-6-(3,4-Methylenedioxyphenyl)-Pyrazino(2′,1′:6,1)Pyrido(3,4-b)Indole-1,4-Dione] yielded a melting point of 265 to 266 °C.

In turn, `CCCCN1CC(=O)N2[C@@H](c3ccccc3Cl)c3[nH]c4ccccc4c3C[C@@H]2C1=O` (relative stereo) [Example 40, Cis-2,3,6,7,12,12a-Hexahydro-2-Butyl-6-(2-Chlorophenyl) Pyrazino(2′,1′:6,1)Pyrido(3,4-b)Indole-1,4-Dione] registered a melting point of 146 °C.
